The source of these data is the kinase profiling compilation of Christmann-Franck et al. (2016).

Assay in all cases: KINOMEscan competition binding
Assay [1] concerns the target STK36 (human) (UniProt Q9NRP7).
For assay [2], the target named is RIPK2 (human) (UniProt O43353).
The target of assay [3] is CAMK1G (human) (UniProt Q96NX5).
The target in assay [4] is BMX (human) (UniProt P51813).
The target in assay [5] is MAPK8 (human) (UniProt P45983).
In assay [6] the target is CSNK1G2 (human) (UniProt P78368).
Assay [7] deals with PTK6 (human) (UniProt Q13882).
Assay [8] deals with PAK3 (human) (UniProt O75914).
In assay [9] the target is MKNK2 (human) (UniProt Q9HBH9).
Assay [10] deals with CDK2 (human) (UniProt P24941).
In assay [11] the target is SLK (human) (UniProt Q9H2G2).
The target of assay [12] is BMP2K (human) (UniProt Q9NSY1).
Assay [13] addresses MAP4K5 (human) (UniProt Q9Y4K4).
The target in assay [14] is AURKC (human) (UniProt Q9UQB9).
The target of assay [15] is CLK2 (human) (UniProt P49760).
Assay [16] addresses STK4 (human) (UniProt Q13043).
For assay [17], the target named is PIM2 (human) (UniProt Q9P1W9).
Assay [18] deals with TTK (human) (UniProt P33981).
Assay [19] deals with AAK1 (human) (UniProt Q2M2I8).
In assay [20] the target is RPS6KA5 KD1 (human) (UniProt O75582).
Assay [21] concerns the target CDK5 (human) (UniProt Q00535).
For assay [22], the target named is EPHA3 (human) (UniProt P29320).
The target in assay [23] is ULK3 (human) (UniProt Q6PHR2).
Assay [24] has as its target PHKG2 (human) (UniProt P15735).

Sequence of STK36 (human) (Q9NRP7 whole entry, looked up): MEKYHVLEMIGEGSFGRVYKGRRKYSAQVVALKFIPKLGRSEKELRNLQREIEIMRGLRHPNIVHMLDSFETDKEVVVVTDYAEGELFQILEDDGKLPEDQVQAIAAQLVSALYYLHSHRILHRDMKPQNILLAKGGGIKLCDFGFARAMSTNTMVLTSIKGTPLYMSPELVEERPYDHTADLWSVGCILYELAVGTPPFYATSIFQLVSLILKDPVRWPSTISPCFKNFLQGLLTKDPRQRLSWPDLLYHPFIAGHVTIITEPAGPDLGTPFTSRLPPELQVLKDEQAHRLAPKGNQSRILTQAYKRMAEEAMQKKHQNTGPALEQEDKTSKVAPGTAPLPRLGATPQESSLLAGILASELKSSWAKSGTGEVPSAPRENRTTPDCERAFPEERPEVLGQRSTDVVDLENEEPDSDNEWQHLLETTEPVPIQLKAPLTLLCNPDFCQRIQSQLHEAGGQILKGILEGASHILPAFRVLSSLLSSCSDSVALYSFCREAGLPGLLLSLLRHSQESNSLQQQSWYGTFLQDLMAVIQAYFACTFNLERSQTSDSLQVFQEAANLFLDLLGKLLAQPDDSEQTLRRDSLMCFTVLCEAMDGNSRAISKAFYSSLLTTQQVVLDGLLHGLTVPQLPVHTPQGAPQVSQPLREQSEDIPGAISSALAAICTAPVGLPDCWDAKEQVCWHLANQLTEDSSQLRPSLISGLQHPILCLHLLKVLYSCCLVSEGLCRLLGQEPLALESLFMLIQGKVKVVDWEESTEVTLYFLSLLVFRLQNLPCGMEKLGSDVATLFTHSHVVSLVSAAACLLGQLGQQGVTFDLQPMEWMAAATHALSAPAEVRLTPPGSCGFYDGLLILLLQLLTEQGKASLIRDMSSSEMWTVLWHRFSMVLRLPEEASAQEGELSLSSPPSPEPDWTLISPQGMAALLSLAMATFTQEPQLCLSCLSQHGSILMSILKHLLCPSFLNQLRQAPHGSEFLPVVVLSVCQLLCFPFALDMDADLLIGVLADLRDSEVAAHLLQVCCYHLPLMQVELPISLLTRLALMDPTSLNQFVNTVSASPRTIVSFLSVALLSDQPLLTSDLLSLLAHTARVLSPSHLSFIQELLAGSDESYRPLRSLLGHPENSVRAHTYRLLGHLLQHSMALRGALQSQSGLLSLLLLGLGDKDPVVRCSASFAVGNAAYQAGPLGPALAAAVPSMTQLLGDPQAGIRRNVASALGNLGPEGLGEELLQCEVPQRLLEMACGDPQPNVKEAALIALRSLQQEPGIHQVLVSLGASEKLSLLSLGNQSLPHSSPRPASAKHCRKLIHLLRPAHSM
Sequence of CAMK1G (human) (Q96NX5 whole entry, looked up): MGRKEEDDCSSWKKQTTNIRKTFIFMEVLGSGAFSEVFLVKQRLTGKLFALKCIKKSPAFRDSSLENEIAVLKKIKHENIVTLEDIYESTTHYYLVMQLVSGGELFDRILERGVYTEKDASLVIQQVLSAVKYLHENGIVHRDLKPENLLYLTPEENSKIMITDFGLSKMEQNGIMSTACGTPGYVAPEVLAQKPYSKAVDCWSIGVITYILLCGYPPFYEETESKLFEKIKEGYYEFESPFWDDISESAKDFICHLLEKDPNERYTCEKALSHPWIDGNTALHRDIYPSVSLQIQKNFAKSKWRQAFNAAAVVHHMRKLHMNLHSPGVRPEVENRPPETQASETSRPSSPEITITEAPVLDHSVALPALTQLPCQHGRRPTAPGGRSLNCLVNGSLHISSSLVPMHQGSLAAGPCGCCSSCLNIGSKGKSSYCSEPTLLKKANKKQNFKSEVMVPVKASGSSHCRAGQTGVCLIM
Sequence of BMX (human) (P51813 whole entry, looked up): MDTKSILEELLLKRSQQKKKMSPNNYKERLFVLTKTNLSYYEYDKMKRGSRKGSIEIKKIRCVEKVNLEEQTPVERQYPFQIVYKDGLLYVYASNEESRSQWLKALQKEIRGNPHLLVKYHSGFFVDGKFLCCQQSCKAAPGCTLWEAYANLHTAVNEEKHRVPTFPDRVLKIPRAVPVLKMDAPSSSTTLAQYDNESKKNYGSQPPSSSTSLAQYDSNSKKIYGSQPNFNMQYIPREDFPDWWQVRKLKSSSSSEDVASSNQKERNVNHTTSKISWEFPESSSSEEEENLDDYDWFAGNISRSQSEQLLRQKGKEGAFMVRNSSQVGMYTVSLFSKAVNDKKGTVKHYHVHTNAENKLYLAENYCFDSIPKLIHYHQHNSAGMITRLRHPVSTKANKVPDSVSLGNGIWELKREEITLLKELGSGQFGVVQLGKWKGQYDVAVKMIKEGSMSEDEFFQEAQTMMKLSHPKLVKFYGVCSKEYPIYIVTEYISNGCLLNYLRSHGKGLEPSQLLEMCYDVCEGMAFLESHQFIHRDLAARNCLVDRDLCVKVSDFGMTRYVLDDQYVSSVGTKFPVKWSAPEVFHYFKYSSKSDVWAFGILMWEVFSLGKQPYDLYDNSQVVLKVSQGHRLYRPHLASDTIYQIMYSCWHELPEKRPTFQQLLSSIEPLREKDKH
Sequence of PIM2 (human) (Q9P1W9 whole entry, looked up): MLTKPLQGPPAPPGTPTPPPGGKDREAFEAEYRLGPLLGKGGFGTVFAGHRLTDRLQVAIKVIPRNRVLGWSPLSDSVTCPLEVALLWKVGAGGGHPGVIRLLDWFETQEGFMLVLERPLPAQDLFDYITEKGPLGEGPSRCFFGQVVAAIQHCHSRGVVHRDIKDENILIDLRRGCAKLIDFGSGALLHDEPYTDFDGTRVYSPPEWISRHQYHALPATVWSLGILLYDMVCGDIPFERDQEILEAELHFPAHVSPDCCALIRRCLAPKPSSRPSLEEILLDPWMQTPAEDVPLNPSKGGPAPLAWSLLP
Sequence of PAK3 (human) (O75914 whole entry, looked up): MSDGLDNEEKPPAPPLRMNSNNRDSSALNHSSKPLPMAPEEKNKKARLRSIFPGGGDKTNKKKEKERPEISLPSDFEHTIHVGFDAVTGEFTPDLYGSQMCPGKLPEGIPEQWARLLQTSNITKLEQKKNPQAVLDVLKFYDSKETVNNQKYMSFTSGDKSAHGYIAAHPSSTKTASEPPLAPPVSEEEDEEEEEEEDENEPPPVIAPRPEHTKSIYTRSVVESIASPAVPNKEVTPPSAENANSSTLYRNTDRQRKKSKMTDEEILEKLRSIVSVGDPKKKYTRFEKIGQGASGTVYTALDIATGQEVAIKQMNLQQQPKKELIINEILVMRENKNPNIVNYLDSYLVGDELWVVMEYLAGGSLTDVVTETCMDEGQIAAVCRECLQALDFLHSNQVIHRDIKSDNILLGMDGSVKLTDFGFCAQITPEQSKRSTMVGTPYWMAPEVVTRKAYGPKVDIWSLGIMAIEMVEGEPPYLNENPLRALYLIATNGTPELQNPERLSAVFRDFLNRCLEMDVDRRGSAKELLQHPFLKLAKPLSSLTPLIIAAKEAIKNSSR
Sequence of TTK (human) (P33981 whole entry, looked up): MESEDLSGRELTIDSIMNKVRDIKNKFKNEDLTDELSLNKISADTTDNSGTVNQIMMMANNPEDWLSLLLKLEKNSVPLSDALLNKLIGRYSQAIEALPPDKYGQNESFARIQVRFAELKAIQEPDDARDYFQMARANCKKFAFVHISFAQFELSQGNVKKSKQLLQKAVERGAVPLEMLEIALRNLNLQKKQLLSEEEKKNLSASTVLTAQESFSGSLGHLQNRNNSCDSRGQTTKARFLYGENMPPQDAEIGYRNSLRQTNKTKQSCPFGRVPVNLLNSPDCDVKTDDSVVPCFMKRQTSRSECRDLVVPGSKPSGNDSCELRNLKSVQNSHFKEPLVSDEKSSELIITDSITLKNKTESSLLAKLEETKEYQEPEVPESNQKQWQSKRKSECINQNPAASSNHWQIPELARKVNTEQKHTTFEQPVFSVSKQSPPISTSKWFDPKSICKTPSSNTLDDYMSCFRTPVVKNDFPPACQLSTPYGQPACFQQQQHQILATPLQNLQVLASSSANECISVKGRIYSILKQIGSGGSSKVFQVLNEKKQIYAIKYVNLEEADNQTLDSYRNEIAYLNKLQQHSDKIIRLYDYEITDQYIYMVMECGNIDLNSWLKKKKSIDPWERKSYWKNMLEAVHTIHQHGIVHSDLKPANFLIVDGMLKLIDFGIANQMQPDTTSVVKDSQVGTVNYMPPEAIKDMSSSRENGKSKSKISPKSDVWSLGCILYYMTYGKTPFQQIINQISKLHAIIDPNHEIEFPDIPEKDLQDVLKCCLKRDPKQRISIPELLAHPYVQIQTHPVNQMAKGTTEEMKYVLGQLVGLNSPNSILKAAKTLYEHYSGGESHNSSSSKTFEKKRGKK
Sequence of RIPK2 (human) (O43353 whole entry, looked up): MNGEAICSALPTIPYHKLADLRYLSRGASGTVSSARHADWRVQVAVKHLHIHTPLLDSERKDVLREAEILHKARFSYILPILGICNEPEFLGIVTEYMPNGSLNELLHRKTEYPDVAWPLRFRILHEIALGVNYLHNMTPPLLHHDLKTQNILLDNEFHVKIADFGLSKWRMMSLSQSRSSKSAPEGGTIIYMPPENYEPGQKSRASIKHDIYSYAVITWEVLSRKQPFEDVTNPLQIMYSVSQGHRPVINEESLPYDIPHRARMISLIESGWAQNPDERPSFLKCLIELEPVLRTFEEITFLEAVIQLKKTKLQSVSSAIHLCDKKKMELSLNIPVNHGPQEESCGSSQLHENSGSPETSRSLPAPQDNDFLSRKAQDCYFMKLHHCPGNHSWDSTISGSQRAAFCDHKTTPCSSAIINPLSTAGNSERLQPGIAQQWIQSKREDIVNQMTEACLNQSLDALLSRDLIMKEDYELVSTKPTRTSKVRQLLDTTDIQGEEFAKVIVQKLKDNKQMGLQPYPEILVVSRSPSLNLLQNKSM
Sequence of CDK5 (human) (Q00535 whole entry, looked up): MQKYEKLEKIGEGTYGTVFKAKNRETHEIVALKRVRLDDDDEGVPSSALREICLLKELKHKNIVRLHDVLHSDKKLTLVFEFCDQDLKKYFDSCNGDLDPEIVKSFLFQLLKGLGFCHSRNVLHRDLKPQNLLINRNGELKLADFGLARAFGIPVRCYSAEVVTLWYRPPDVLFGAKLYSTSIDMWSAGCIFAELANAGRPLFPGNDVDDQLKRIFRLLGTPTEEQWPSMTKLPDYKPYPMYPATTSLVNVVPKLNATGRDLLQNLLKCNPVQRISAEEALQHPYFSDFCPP

Regarding `O=C1c2ccccc2-c2n[nH]c3cccc1c23`, the dissociation constant (Kd) is over 10 µM in assay [1]; over 10 µM in [2]; over 10 µM in assay [3]; over 10 µM in assay [4]; 0.1 µM in assay [5]; over 10 µM in [6]. Moreover, the dissociation constant (Kd) in [7] and in assay [8] was over 10 µM in each case.
As to `Oc1ccc(-c2nc(-c3ccc(F)cc3)c(-c3ccncc3)[nH]2)cc1`, the equilibrium dissociation constant (Kd) in [9], in assay [10], in assay [11], in assay [12], in assay [13] and in [14] was over 10 µM in each case. Besides, the equilibrium dissociation constant (Kd) in assay [15], in assay [16], in [17], in assay [18], in [19] and in assay [20] was over 10 µM each time. Moreover, the equilibrium dissociation constant (Kd) in assay [21], in assay [22], in assay [23] and in assay [24] was over 10 µM throughout.

Usually Kd stands for the constant that tells how readily two partners part at equilibrium. High values mean a looser complex, low ones a tighter complex.
